# US6372297B1, “Wood preservative oxathiazines” (Uniroyal Chemical Company, Inc., priority 1993, dated 2002)
# What was measured:
# [1] = test system: blue-stain fungi and molds; experiment: Activity against blue-stain fungi and molds on a stick test on vermiculite (paint film); set-up: key to Surface score of wooden sticks treated with paint formulation, C. cladosporioides / Surface score of wooden sticks treated with paint formulation, P. purpurogenum / Surface score of wooden sticks treated with paint formulation, P. violacea / Surface score of wooden sticks treated with paint formulation, R rubra (y) / Surface score of wooden sticks treated with paint formulation, S. chartarum / Surface score of wooden sticks treated with paint formulation, A. versicolor / Surface score of wooden sticks treated with paint formulation, A. pullulans: 0: No growth; Trace of growth of up to 1% coverage of the test inoculated area; 2: Growth covering between 1 and 10% of the inoculated test area; Growth covering between 10 and 30% of the inoculated test area; 4: Growth covering between 30 and 70% of the inoculated test area; 5: Growth covering more than 70t of the inoculated test area; conditions: 12 weeks on vermiculite; for Surface score of wooden sticks treated with paint formulation, R rubra (y): R rubra (yeast)
# Protocol: Beech sticks (73×18×2 mm) Fagus sylvatica were painted, allowed to dry, and sterilized by γ-radiation (1.2 mRad). […] The coated sticks prepared above were then dipped in a spore suspension of pure culture of each fungus. Seven sticks each were placed in autoclaved Petri dishes (200 mm in diameter, 30 mm in height) containing 300 ml of vermiculite and 120 ml of water, and incubated for 12 weeks. The surfaces of the sticks were then examined for the growth of fungus and were evaluated according to the following scoring system: 0: No growth 1: […] 2: […] 3: […] 4. […] 5. Growth covering more than 70t of the inoculated test area.
# [2] = test system: mixed spore suspension of blue-stain fungus and molds; experiment: Activity against blue-stain fungi and molds in a mold cabinet test (BS3900: Part G6)
# Protocol: Using the methods described in BS3900: Part G6: 1989, British Standard Methods of test for paints, “Assessment of resistance to fungal growth”, representative compounds of this invention were tested for activity against blue-stain fungus and molds in a mold cabinet test. In brief, sticks of Scots pine (Pinus sylvestris) measuring 75×100×10 mm, were painted, allowed to dry, and sterilized by […] (1.2 mRad). […] The sticks were then with each solution. The inoculation consisted of dipping the sticks in a mixed spore suspension, then placing them in a mold chamber and incubating them for 12 weeks. The surfaces were evaluated according the following score system: 0: No growth 1: […] 2: […] 3: […] 4. […] 5. Growth covering more than 70% of the inoculated test area.
# [3] = test system: mixed spore suspension: Aureobasidium pullulans, Aspergillus amstelodami, Ceratocystis pilifera, Cladosporium sp., Penicillium sp., Sclerophomas entoxylina …; experiment: Control of molds and sapstain fungi in mini-board test; set-up: key to Surface score of treated mini-boards, 3 week incubation, 1500 ppm / Surface score of treated mini-boards, 3 week incubation, 2500 ppm: 0: Free of fungal growth; 1: Traces of fungal growth; 2: Little fungal growth; 3: Moderate fungal growth; 4: Vigorous to maximum growth (all surfaces covered with fungal growth)
# Description: Representative compounds of this invention to be tested, were suspended in an aqueous solution containing 7.5% GENAPOL X 080™ (Hoechst-Celanese Corporation), and 20% propylene glycol monomethyl ether, to prepare the test solutions. […]
# Deep frozen boards (300×50×10 mm) of freshly felled sapwood of Pinus sylvestrus (mini-boards) were thawed at room temperature. One half of each mini-board was immersed in a test solution for 20 seconds. The mini-boards were then sprayed with mixed spore suspension containing the following fungi:
# Sclerophomas entoxylina, and
# and stored in incubation boxes at 25° C. and at 100% relative humidity, for three weeks. For each compound tested, each concentration of test solution was applied to five different mini-boards.
# The efficacy of the test compounds was determined by comparing the fungal growth on both the treated and untreated parts of the mini-boards.
# The degree of infection was scored according to the following scale:
# 1=Traces of fungal growth
# 4=Vigorous to maximum growth (all surfaces covered with fungal growth)
# [4] = test system: molds and blue-stain fungi; experiment: In vitro activity against molds and blue-stain fungi, poison plate assay (MIC); assay type: cell-based; conditions: malt extract agar, complete inhibition
# Protocol: The effect of the representative compounds on the growth of certain molds and blue-strain fungi were determined using a poison plate assay according to the following procedure: The solutions of the representative compounds prepared above were further diluted with sterile water to desired concentrations and poured into Petri dishes. Malt extract agar medium was then added aseptically to the Petri dishes and to Petri dishes containing no compound (controls). The Petri dishes were then shaken to provide a uniform distribution of the agar medium. Each Petri dish containing compound and each control Petri dish, was then inoculated with a fungus and incubated for a period of time sufficient to permit complete growth of the fungus in the respective control Petri dish. The Petri dishes containing compound were then examined to determine the amount of inhibition of fungi for each concentration of compound tested.
# [5] = test system: blue-stain fungi and molds; experiment: Activity against blue-stain fungi and molds in a stick test (threshold concentrations); conditions: beech sticks, 22° C., 90% relative humidity
# Protocol: Representative compounds of this invention were dissolved in 50% ethanol. Each compound was then diluted serially using 50% ethanol. […] After three (3) hours, the solutions containing the test compounds were poured off and the treated sticks were allowed to dry in a sterile laminar air flow. Each treated stick was then placed in a Petri dish which had been previously seeded with inoculum. Two drops of a test fungal or spore suspension were pipetted onto the upper surface of each treated stick. The Petri dishes containing the treated sticks were incubated at 22° C. and 90% relative humidity. The treated sticks were evaluated after there was sufficient growth of fungus on control sticks (i.e., untreated sticks) incubated in the same manner. The following score system was used: 0: Stick free of fungal/mold growth 1: Traces of fungal growth on the stick 2: Slight growth (5 to 25% of the surface covered with fungal growth) 3: Moderate growth (25 to 50% covered with fungal growth) 4. Vigorous to maximum fungal growth (more than 50% growth) […]
smiles,measurement,setting,value
[O-][S+]1CCON=C1c1ccc(Br)s1 (stereo not drawn) [Compound 36],"Surface score of wooden sticks treated with paint formulation, A. pullulans",[1]; 0.15% a.i. in paint,0
same,"Surface score of wooden sticks treated with paint formulation, A. pullulans",[1]; 0.3% a.i. in paint,0
same,"Surface score of wooden sticks treated with paint formulation, A. versicolor",[1]; 0.15% a.i. in paint,0
same,"Surface score of wooden sticks treated with paint formulation, A. versicolor",[1]; 0.3% a.i. in paint,0
same,"Surface score of wooden sticks treated with paint formulation, C. cladosporioides",[1]; 0.15% a.i. in paint,0
same,"Surface score of wooden sticks treated with paint formulation, C. cladosporioides",[1]; 0.3% a.i. in paint,0
same,"Surface score of wooden sticks treated with paint formulation, P. purpurogenum",[1]; 0.15% a.i. in paint,1 (Trace of growth of up to 1% coverage of the test inoculated area)
same,"Surface score of wooden sticks treated with paint formulation, P. purpurogenum",[1]; 0.3% a.i. in paint,1 (Trace of growth of up to 1% coverage of the test inoculated area)
same,"Surface score of wooden sticks treated with paint formulation, P. violacea",[1]; 0.15% a.i. in paint,3 (Growth covering between 10 and 30% of the inoculated test area)
same,"Surface score of wooden sticks treated with paint formulation, P. violacea",[1]; 0.3% a.i. in paint,1 (Trace of growth of up to 1% coverage of the test inoculated area)
same,"Surface score of wooden sticks treated with paint formulation, R rubra (y)",[1]; 0.15% a.i. in paint,0
same,"Surface score of wooden sticks treated with paint formulation, R rubra (y)",[1]; 0.3% a.i. in paint,0
same,"Surface score of wooden sticks treated with paint formulation, S. chartarum",[1]; 0.15% a.i. in paint,0
same,"Surface score of wooden sticks treated with paint formulation, S. chartarum",[1]; 0.3% a.i. in paint,0
same,"Surface score of wooden sticks treated with paint formulation, U. atrum",[1]; 0.15% a.i. in paint,3 (Growth covering between 10 and 30% of the inoculated test area)
same,"Surface score of wooden sticks treated with paint formulation, U. atrum",[1]; 0.3% a.i. in paint,1 (Trace of growth of up to 1% coverage of the test inoculated area)
same,"Surface score in a paint formulation in a mold cabinet test, 6 weeks",[2]; 0.15% in water-based paint,2.5
same,"Surface score in a paint formulation in a mold cabinet test, 12 weeks",[2]; 0.15% in water-based paint,4.5
same,"Surface score in a paint formulation in a mold cabinet test, 6 weeks",[2]; 0.3% in water-based paint,2.5
same,"Surface score in a paint formulation in a mold cabinet test, 12 weeks",[2]; 0.3% in water-based paint,4.0
same,"Surface score of treated mini-boards, 3 week incubation, 1500 ppm",[3],0.2
same,"Surface score of treated mini-boards, 6 week incubation, 1500 ppm",[3],2.6
same,"Surface score of treated mini-boards, 3 week incubation, 2500 ppm",[3],0
same,"Surface score of treated mini-boards, 6 week incubation, 2500 ppm",[3],1.4
Cc1ccc(C2=NOCC[S+]2[O-])s1 (stereo not drawn) [Compound 48],"Surface score of treated mini-boards, 3 week incubation, 1500 ppm",[3],0
same,"Surface score of treated mini-boards, 6 week incubation, 1500 ppm",[3],1.4
same,"Surface score of treated mini-boards, 3 week incubation, 2500 ppm",[3],0
same,"Surface score of treated mini-boards, 6 week incubation, 2500 ppm",[3],0.8
Cc1ccc(C2=NOCCS2(=O)=O)s1 [Compound 49],"Surface score of treated mini-boards, 3 week incubation, 1500 ppm",[3],0
same,"Surface score of treated mini-boards, 6 week incubation, 1500 ppm",[3],1.8
same,"Surface score of treated mini-boards, 3 week incubation, 2500 ppm",[3],0
same,"Surface score of treated mini-boards, 6 week incubation, 2500 ppm",[3],1.2
O=S1(=O)CCON=C1c1ccsc1 [Compound 78],"Surface score of treated mini-boards, 3 week incubation, 1500 ppm",[3],0.2
same,"Surface score of treated mini-boards, 6 week incubation, 1500 ppm",[3],1.2
same,"Surface score of treated mini-boards, 3 week incubation, 2500 ppm",[3],0.2
same,"Surface score of treated mini-boards, 6 week incubation, 2500 ppm",[3],1.8
[O-][S+]1CCON=C1c1ccsc1 (stereo not drawn) [Compound 79],"Surface score of treated mini-boards, 3 week incubation, 1500 ppm",[3],1.0
same,"Surface score of treated mini-boards, 6 week incubation, 1500 ppm",[3],3.0
same,"Surface score of treated mini-boards, 3 week incubation, 2500 ppm",[3],0
same,"Surface score of treated mini-boards, 6 week incubation, 2500 ppm",[3],1.8
[O-][S+]1CCON=C1c1cc2ccccc2s1 (stereo not drawn) [Compound 87],MIC (ppm) against A. amstelodami,[4]; A. amstelodami,5 ppm
same,MIC (ppm) against A. niger,[4]; A. niger,2.5 ppm
same,MIC (ppm) against A. pullulans,[4]; A. pullulans,10 ppm
same,MIC (ppm) against A. versicolor,[4]; A. versicolor,2.5 ppm
same,MIC (ppm) against C. cladosporioides,[4]; C. cladosporioides,25 ppm
same,MIC (ppm) against C. pilifera,[4]; C. pilifera,2.5 ppm
same,MIC (ppm) against F. solani,[4]; F. solani,10 ppm
same,MIC (ppm) against G. candidum,[4]; G. candidum,25 ppm
same,MIC (ppm) against P. purpurogenum,[4]; P. purpurogenum,2.5 ppm
same,MIC (ppm) against P. variotii,[4]; P. variotii,10 ppm
same,MIC (ppm) against P. violacea,[4]; P. violacea,10 ppm
same,MIC (ppm) against S. atra,[4]; S. atra,2.5 ppm
same,MIC (ppm) against S. entoxylina,[4]; S. entoxylina,5 ppm
same,MIC (ppm) against T. viride,[4]; T. viride,10 ppm
same,MIC (ppm) against U. atrum,[4]; U. atrum,10 ppm
same,"Threshold concentration (ppm), A. niger, score 0","[5]; A. niger, minimum concentration to obtain score 0",1000 ppm
same,"Threshold concentration (ppm), A. niger, score 1-2","[5]; A. niger, minimum concentration to obtain score 1-2",250-500 ppm
same,"Threshold concentration (ppm), Aureobasidium, score 0","[5]; Aureobasidium, minimum concentration to obtain score 0",1000 ppm
same,"Threshold concentration (ppm), Aureobasidium, score 1-2","[5]; Aureobasidium, minimum concentration to obtain score 1-2",100-250 ppm
same,"Threshold concentration (ppm), Sclerophoma, score 0","[5]; Sclerophoma, minimum concentration to obtain score 0",100 ppm
same,"Threshold concentration (ppm), Sclerophoma, score 1-2","[5]; Sclerophoma, minimum concentration to obtain score 1-2",50-100 ppm
same,"Threshold concentration (ppm), Trichoderma, score 0","[5]; Trichoderma, minimum concentration to obtain score 0",5000 ppm
same,"Threshold concentration (ppm), Trichoderma, score 1-2","[5]; Trichoderma, minimum concentration to obtain score 1-2",1000-2500 ppm
